Values joined by “and” are separate entries in the source; they are usually repeats but may differ in a detail not shown here. Identical values can stand only once.
Tested on: BDF1 mice, Adenocarcinoma 755 s.c., tumor weight T/C
Assay: NCI In Vivo Anticancer Drug Screen. Data for tumor model Adenocarcinoma 755 (subcutaneous) in B6D2F1 (BDF1) mice
Settings: endpoint: mean tumor weight, higher = larger tumour
How it was run: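 Compound activity was tested in mice carrying transplanted tumors. Survival or tumor size was measured, and each value is the treated-group measurement divided by that of the vehicle-treated control group (T/C).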

[1] = dose: 25.0 mg/kg/injection, schedule: Q01DX011 (ip), vehicle: carboxymethylcellulose (CMC)
[2] = dose: 25.0 mg/kg/injection, schedule: Q01DX011 (ip), vehicle: other
[3] = dose: 50.0 mg/kg/injection, schedule: Q01DX011 (ip), vehicle: carboxymethylcellulose (CMC)
[4] = dose: 50.0 mg/kg/injection, schedule: Q01DX011 (ip), vehicle: other
[5] = dose: 100.0 mg/kg/injection, schedule: Q01DX011 (ip), vehicle: other
[6] = dose: 15.0 mg/kg/injection, schedule: Q01DX011 (ip), vehicle: carboxymethylcellulose (CMC)
[7] = dose: 30.0 mg/kg/injection, schedule: Q01DX011 (ip), vehicle: carboxymethylcellulose (CMC)
[8] = dose: 37.5 mg/kg/injection, schedule: Q01DX011 (ip), vehicle: carboxymethylcellulose (CMC)
[9] = dose: 75.0 mg/kg/injection, schedule: Q01DX011 (ip), vehicle: carboxymethylcellulose (CMC)
[10] = dose: 1.5 mg/kg/injection, schedule: Q01DX011 (ip), vehicle: methylcellulose (MC)
[11] = dose: 3.1 mg/kg/injection, schedule: Q01DX011 (ip), vehicle: methylcellulose (MC)
[12] = dose: 6.2 mg/kg/injection, schedule: Q01DX011 (ip), vehicle: methylcellulose (MC)
[13] = dose: 12.5 mg/kg/injection, schedule: Q01DX011 (ip), vehicle: methylcellulose (MC)
[14] = dose: 25.0 mg/kg/injection, schedule: Q01DX011 (ip), vehicle: methylcellulose (MC)

SMILES: C[C@H]1C[C@@H]2[C@H]([C@@H](O)C[C@@]3(C)[C@H]2CC[C@]3(O)C(=O)CF)[C@@]2(C)C=CC(=O)C=C12
- T/C (dose: 2.5 mg/kg/injection, schedule: Q01DX011 (sc), vehicle: steriod suspending solution): 82 % of control
- T/C (dose: 5.0 mg/kg/injection, schedule: Q01DX011 (sc), vehicle: steriod suspending solution): 57 % of control
- T/C (dose: 10.0 mg/kg/injection, schedule: Q01DX011 (sc), vehicle: steriod suspending solution): 48 % of control
- T/C (dose: 21.0 mg/kg/injection, schedule: Q01DX011 (sc), vehicle: steriod suspending solution): 64 % of control
- T/C (dose: 25.0 mg/kg/injection, schedule: Q01DX011 (sc), vehicle: steriod suspending solution): 91 % of control
- T/C (dose: 42.0 mg/kg/injection, schedule: Q01DX011 (sc), vehicle: saline): 39 % of control
- T/C (dose: 42.0 mg/kg/injection, schedule: Q01DX011 (sc), vehicle: steriod suspending solution): 12 % of control and 25 % of control (2×)
- T/C (dose: 50.0 mg/kg/injection, schedule: Q01DX011 (sc), vehicle: steriod suspending solution): 59 % of control
- T/C (dose: 84.0 mg/kg/injection, schedule: Q01DX011 (sc), vehicle: saline): 61 % of control
- T/C (dose: 84.0 mg/kg/injection, schedule: Q01DX011 (sc), vehicle: steriod suspending solution): 9 % of control
- T/C (dose: 100.0 mg/kg/injection, schedule: Q01DX011 (sc), vehicle: steriod suspending solution): 55 % of control
- T/C (dose: 168.0 mg/kg/injection, schedule: Q01DX011 (sc), vehicle: saline): 19 % of control
- T/C (dose: 168.0 mg/kg/injection, schedule: Q01DX011 (sc), vehicle: steriod suspending solution): 1 % of control
- T/C (dose: 200.0 mg/kg/injection, schedule: Q01DX011 (sc), vehicle: steriod suspending solution): 57 % of control
- T/C (dose: 336.0 mg/kg/injection, schedule: Q01DX011 (sc), vehicle: saline): 19 % of control
- T/C (dose: 400.0 mg/kg/injection, schedule: Q01DX011 (sc), vehicle: steriod suspending solution): 23 % of control
- T/C (dose: 500.0 mg/kg/injection, schedule: Q01DX011 (sc), vehicle: steriod suspending solution): 39 % of control
- T/C (dose: 600.0 mg/kg/injection, schedule: Q01DX011 (sc), vehicle: steriod suspending solution): 37 % of control
- T/C (dose: 700.0 mg/kg/injection, schedule: Q01DX011 (sc), vehicle: steriod suspending solution): 17 % of control

SMILES: Cc1ccc(CSc2ncnc3nc[nH]c23)cc1C
- T/C (dose: 18.75 mg/kg/injection, schedule: Q01DX011 (ip), vehicle: methylcellulose (MC)): 48 % of control
- T/C (dose: 37.5 mg/kg/injection, schedule: Q01DX011 (ip), vehicle: methylcellulose (MC)): 41 % of control
- T/C (dose: 75.0 mg/kg/injection, schedule: Q01DX011 (ip), vehicle: methylcellulose (MC)): 32 % of control
- T/C (dose: 150.0 mg/kg/injection, schedule: Q01DX011 (ip), vehicle: methylcellulose (MC)): 7 % of control

SMILES: Cc1cc(O)c(C(C)C)cc1S(=O)(=O)O (tested in a mixture with another compound)
- T/C [1]: 78 % of control
- T/C [2]: 32 % of control
- T/C [3]: 53 % of control
- T/C [4]: 83 % of control
- T/C (dose: 100.0 mg/kg/injection, schedule: Q01DX011 (ip), vehicle: carboxymethylcellulose (CMC)): 49 % of control
- T/C [5]: 44 % of control
- T/C (dose: 200.0 mg/kg/injection, schedule: Q01DX011 (ip), vehicle: carboxymethylcellulose (CMC)): 42 % of control
- T/C (dose: 200.0 mg/kg/injection, schedule: Q01DX011 (ip), vehicle: other): 7 % of control

SMILES: Nc1nc(SCc2ccccc2[N+](=O)[O-])c2[nH]cnc2n1
- T/C (dose: 3.7 mg/kg/injection, schedule: Q01DX011 (ip), vehicle: carboxymethylcellulose (CMC)): 95 % of control
- T/C (dose: 7.5 mg/kg/injection, schedule: Q01DX011 (ip), vehicle: carboxymethylcellulose (CMC)): 90 % of control
- T/C [6]: 68 % of control
- T/C [7]: 67 % of control
- T/C [8]: 2 % of control
- T/C [9]: 1 % of control
- T/C (dose: 300.0 mg/kg/injection, schedule: Q01DX011 (ip), vehicle: carboxymethylcellulose (CMC)): 4 % of control

SMILES: Nc1nc(SCc2cccnc2)c2ncn(C3OC(CO)C(O)C3O)c2n1 (centres undefined)
- T/C [10]: 92 % of control
- T/C [11]: 87 % of control
- T/C [12]: 12 % of control and 15 % of control

SMILES: CN(Cc1ccccc1)c1ncnc2[nH]ncc12
- T/C [13]: 42 % of control
- T/C [14]: 62 % of control
- T/C (dose: 50.0 mg/kg/injection, schedule: Q01DX011 (ip), vehicle: methylcellulose (MC)): 10 % of control
- T/C (dose: 100.0 mg/kg/injection, schedule: Q01DX011 (ip), vehicle: methylcellulose (MC)): 2 % of control

SMILES: Nc1nc(SCc2ccccn2)c2[nH]cnc2n1
- T/C (dose: 0.78 mg/kg/injection, schedule: Q01DX011 (ip), vehicle: methylcellulose (MC)): 63 % of control
- T/C (dose: 1.56 mg/kg/injection, schedule: Q01DX011 (ip), vehicle: methylcellulose (MC)): 14 % of control
- T/C (dose: 3.12 mg/kg/injection, schedule: Q01DX011 (ip), vehicle: methylcellulose (MC)): 3 % of control
- T/C (dose: 6.25 mg/kg/injection, schedule: Q01DX011 (ip), vehicle: methylcellulose (MC)): 2 % of control

SMILES: Nc1nc(SCc2cccc(Br)c2)c2ncn(C3OC(CO)C(O)C3O)c2n1 (centres undefined)
- T/C [10]: 84 % of control
- T/C [11]: 62 % of control
- T/C [12]: 12 % of control and 24 % of control
- T/C [13]: 1 % of control
- T/C [14]: 2 % of control

SMILES: Nc1ncnc2c1ccn2C1OC(CO)C(O)C1O (centres undefined)
- T/C (dose: 0.5 mg/kg/injection, schedule: Q01DX011 (ip), vehicle: carboxymethylcellulose (CMC)): 68 % of control
- T/C (dose: 1.0 mg/kg/injection, schedule: Q01DX011 (ip), vehicle: carboxymethylcellulose (CMC)): 76 % of control

SMILES: Cc1ccc(C)c(N=Nc2c(S(=O)(=O)O)cc3cc(NC(=O)Nc4ccc5c(O)c(N=Nc6ccc7cc(S(=O)(=O)O)ccc7c6)c(S(=O)(=O)O)cc5c4)ccc3c2O)c1
- T/C (dose: 45.0 mg/kg/injection, schedule: Q01DX011 (ip), vehicle: carboxymethylcellulose (CMC)): 59 % of control

SMILES: C[C@@H]1CN(C(=O)CCOS(C)(=O)=O)[C@@H](C)CN1C(=O)CCOS(C)(=O)=O
- T/C (dose: 4.0 mg/kg/injection, schedule: Q01DX011 (ip), vehicle: saline): 95 % of control
- T/C (dose: 8.0 mg/kg/injection, schedule: Q01DX011 (ip), vehicle: saline): 65 % of control
- T/C (dose: 9.4 mg/kg/injection, schedule: Q01DX011 (ip), vehicle: carboxymethylcellulose (CMC)): 104 % of control
- T/C [6]: 61 % of control
- T/C (dose: 16.0 mg/kg/injection, schedule: Q01DX011 (ip), vehicle: saline): 60 % of control
- T/C [7]: 32 % of control
- T/C (dose: 33.0 mg/kg/injection, schedule: Q01DX011 (ip), vehicle: carboxymethylcellulose (CMC)): 21 % of control
- T/C (dose: 33.0 mg/kg/injection, schedule: Q01DX011 (ip), vehicle: saline): 52 % of control
- T/C [8]: 59 % of control and 62 % of control
- T/C [3]: 27 % of control
- T/C (dose: 50.0 mg/kg/injection, schedule: Q01DX011 (ip), vehicle: saline): 15 % of control
- T/C (dose: 60.0 mg/kg/injection, schedule: Q01DX011 (ip), vehicle: carboxymethylcellulose (CMC)): 5 % of control
- T/C [9]: 9 % of control and 15 % of control and 23 % of control
- T/C (dose: 112.5 mg/kg/injection, schedule: Q01DX011 (ip), vehicle: carboxymethylcellulose (CMC)): 10 % of control
- T/C (dose: 120.0 mg/kg/injection, schedule: Q01DX011 (ip), vehicle: carboxymethylcellulose (CMC)): 4 % of control

SMILES: CCCCn1cnc2c(SCc3ccccn3)nc(N)nc21
- T/C (dose: 3.6 mg/kg/injection, schedule: Q01DX011 (ip), vehicle: methylcellulose (MC)): 6 % of control
- T/C (dose: 7.25 mg/kg/injection, schedule: Q01DX011 (ip), vehicle: methylcellulose (MC)): 2 % of control

SMILES: CC(C)CNS(=O)(=O)c1ncnc2nc[nH]c12
- T/C (dose: 6.0 mg/kg/injection, schedule: Q01DX011 (ip), vehicle: carboxymethylcellulose (CMC)): 62 % of control
- T/C (dose: 6.0 mg/kg/injection, schedule: Q01DX011 (ip), vehicle: other): 81 % of control
- T/C (dose: 12.0 mg/kg/injection, schedule: Q01DX011 (ip), vehicle: other): 96 % of control
- T/C (dose: 12.5 mg/kg/injection, schedule: Q01DX011 (ip), vehicle: carboxymethylcellulose (CMC)): 24 % of control
- T/C (dose: 19.0 mg/kg/injection, schedule: Q01DX011 (ip), vehicle: carboxymethylcellulose (CMC)): 12 % of control
- T/C [1]: 8 % of control
- T/C [2]: 34 % of control
- T/C [4]: 6 % of control
- T/C [9]: 2 % of control
- T/C [5]: 10 % of control

From PubChem BioAssay AID180 (DTP/NCI, 2004)
